Assay results from patent publication US20090203708A1, “NOVEL SUBSTITUTED-1-H-QUINAZOLINE-2,4-DIONE DERIVATIVES, PREPARATION METHOD THEREOF AND PHARMACEUTICAL COMPOSITION CONTAINING THE SAME” (Korea Research Institute of Chemical Technology, priority 2006, published 2009).
pIC50: −log10 of the molar value.

Key:
[1] = biological target: 5-HT7 (human recombinant receptor, CHO-K1) (Homo sapiens, UniProt P34969); experiment: Radioligand binding assay, 5-HT7
[2] = biological target: 5-HT2a (human recombinant receptor, CHO-K1) (Homo sapiens, UniProt P28223); experiment: Radioligand binding assay, 5-HT2a
Sequence of 5-HT2a (human recombinant receptor, CHO-K1) (P28223 whole entry): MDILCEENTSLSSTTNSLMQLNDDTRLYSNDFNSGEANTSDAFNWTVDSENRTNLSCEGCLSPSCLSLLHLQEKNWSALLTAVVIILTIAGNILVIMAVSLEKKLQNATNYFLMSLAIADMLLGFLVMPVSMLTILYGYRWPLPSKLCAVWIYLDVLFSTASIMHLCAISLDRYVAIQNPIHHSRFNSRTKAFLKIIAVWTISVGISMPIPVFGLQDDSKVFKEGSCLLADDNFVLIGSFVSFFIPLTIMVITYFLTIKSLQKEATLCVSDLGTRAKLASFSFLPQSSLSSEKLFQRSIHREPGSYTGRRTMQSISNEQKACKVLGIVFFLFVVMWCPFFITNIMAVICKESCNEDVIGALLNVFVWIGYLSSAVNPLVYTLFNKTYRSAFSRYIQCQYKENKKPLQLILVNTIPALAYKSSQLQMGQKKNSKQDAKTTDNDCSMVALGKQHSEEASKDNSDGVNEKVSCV

[3] = biological target: T1, 5-HT1a (human recombinant receptor, CHO-K1) (Homo sapiens, UniProt P08908); experiment: Radioligand binding assay, 5-HT1a
T1 sequence (P08908 1-422): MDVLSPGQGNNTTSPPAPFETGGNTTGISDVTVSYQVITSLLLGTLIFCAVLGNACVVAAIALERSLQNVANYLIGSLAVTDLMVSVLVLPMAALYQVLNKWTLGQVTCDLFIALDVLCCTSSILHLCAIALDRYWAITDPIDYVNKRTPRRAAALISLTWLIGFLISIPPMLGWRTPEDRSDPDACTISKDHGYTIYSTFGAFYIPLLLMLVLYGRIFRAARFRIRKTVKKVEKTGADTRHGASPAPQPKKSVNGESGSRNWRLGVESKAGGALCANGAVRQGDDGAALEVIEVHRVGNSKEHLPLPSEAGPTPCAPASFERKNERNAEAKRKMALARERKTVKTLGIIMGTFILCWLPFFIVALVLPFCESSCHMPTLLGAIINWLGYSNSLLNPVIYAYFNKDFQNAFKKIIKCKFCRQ

[4] = biological target: T2, 5-HT2c (human recombinant receptor, CHO-K1) (Homo sapiens, UniProt P28335); experiment: Radioligand binding assay, 5-HT2c
T2 sequence (P28335 33-458): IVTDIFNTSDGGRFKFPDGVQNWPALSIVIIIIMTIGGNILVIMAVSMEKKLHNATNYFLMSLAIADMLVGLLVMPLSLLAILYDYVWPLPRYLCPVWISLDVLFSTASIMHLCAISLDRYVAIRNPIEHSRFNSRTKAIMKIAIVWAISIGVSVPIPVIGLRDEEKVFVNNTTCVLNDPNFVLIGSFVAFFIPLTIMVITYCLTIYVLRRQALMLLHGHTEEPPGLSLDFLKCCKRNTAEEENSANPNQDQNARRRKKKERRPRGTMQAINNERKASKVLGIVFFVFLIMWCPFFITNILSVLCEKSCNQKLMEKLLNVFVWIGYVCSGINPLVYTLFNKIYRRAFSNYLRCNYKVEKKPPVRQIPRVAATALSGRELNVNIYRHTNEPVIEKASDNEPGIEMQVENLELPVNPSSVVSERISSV

[5] = biological target: human serotonin 5-HT6 receptor (Homo sapiens, UniProt P50406); experiment: [3H]LSD binding assay for cloned 5-HT6 receptors
Sequence of human serotonin 5-HT6 receptor (P50406 whole entry): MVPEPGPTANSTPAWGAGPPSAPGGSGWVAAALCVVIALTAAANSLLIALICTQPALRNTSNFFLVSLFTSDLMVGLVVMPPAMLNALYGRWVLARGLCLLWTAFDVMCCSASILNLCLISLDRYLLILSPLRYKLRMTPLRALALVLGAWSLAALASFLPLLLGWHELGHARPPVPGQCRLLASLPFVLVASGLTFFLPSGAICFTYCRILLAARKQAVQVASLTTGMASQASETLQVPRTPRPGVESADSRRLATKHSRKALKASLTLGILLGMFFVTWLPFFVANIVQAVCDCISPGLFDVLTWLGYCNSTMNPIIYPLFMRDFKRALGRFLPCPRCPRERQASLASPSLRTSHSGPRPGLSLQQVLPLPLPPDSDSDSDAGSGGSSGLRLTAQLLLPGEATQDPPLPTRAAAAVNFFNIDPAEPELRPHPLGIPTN

[6] = biological target: D3 (hD3 receptor) (Homo sapiens, UniProt P35462); experiment: Radioligand binding assay, dopamine D3
Sequence of D3 (hD3 receptor) (P35462 whole entry): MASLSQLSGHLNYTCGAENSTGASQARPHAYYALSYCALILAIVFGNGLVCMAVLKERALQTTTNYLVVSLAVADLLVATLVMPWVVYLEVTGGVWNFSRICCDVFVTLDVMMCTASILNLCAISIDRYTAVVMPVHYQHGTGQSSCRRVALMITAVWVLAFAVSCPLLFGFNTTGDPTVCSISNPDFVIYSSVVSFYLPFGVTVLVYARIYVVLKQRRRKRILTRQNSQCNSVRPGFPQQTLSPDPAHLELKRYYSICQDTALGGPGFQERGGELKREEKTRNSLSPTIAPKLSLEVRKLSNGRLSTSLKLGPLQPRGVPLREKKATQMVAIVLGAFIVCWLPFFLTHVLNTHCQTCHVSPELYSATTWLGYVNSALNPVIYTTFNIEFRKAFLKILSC

[7] = biological target: T3, D4 (hD4.2 receptor) (Homo sapiens, UniProt P21917, DEL265-296); experiment: Radioligand binding assay, dopamine D4; settings: [3H] YM-09151-2 0.06 nM; read-out: Binding affinity IC50 D4
T3 construct: purchased BioSignal Packard Inc., Montreal, Canada
T3 sequence (P21917 with tags, fused parts or gaps DEL265-296): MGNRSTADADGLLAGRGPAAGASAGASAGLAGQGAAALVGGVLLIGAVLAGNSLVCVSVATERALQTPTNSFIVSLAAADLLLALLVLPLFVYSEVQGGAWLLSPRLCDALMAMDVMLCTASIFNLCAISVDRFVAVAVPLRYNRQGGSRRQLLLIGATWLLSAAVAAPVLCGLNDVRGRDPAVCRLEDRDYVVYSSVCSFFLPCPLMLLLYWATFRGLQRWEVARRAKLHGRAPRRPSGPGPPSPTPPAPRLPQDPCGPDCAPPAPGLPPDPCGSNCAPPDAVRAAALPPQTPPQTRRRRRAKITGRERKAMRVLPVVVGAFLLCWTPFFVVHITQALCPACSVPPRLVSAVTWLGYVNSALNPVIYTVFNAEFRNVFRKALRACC
Method: (§1) Radioligand binding assays for dopamine receptor family (D1, D2 and D3) were performed according to the protocols provided by the manufacturer of receptor membranes (BioSignal Packard Inc., Montreal, Canada). The radioligands used were [^3H] spiperone (for hD2L and hD3 receptors, 1 nM) and [^3H] YM-09151-2 (hD4.2 receptor, 0.06 nM). Briefly, the buffer used in the D1, D2 and D3 receptor binding assay was 50 mM Tris-HCl (pH 7.4), containing 10 mM MgCl2 and 1 mM EDTA, or 50 mM Tris-HCl (pH 7.4), containing 5 mM MgCl2, 5 mM EDTA, 5 mM KCl, 1.5 mM CaCl2 and 120 mM NaCl. For [^3H] YM-09151-2 receptor binding assays, 50 mM Tris-HCl (pH 7.4) containing 5 mM MgCl2, 5 mM EDTA, 5 mM KCl and 1.5 mM CaCl2, was used as a buffer. Nonspecific binding was determined with haloperidol (10 μM) for D2 and D3 and clozapine (10 μM) for D4 receptors.
(§2) Competition binding studies were carried out with 7-8 concentrations of the test compound run in duplicate tubes, and isotherms from three assays were calculated by computerized nonlinear regression analysis (GraphPad Prism Program, San Diego, […]) to yield median inhibitory concentration (IC50) values.

[8] = biological target: T4, D2 (hD2L receptor) (Homo sapiens, UniProt P14416); experiment: Radioligand binding assay, dopamine D2; settings: [3H] spiperone 1 nM; read-out: Binding affinity IC50 D2
T4 construct: purchased BioSignal Packard Inc., Montreal, Canada
T4 sequence (P14416 whole entry): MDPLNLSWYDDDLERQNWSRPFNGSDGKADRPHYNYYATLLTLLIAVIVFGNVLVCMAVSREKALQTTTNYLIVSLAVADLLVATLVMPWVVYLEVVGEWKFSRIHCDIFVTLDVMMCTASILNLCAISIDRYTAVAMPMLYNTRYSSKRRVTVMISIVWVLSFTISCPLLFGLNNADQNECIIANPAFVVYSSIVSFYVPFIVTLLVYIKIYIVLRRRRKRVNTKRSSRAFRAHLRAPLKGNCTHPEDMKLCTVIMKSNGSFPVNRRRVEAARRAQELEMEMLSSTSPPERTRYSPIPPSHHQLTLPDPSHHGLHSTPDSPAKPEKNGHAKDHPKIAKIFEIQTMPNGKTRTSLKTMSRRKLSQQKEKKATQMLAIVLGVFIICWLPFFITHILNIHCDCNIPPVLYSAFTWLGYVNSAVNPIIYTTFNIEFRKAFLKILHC
Method: as §1, §2

Sequence of 5-HT7 (human recombinant receptor, CHO-K1) (P34969 whole entry): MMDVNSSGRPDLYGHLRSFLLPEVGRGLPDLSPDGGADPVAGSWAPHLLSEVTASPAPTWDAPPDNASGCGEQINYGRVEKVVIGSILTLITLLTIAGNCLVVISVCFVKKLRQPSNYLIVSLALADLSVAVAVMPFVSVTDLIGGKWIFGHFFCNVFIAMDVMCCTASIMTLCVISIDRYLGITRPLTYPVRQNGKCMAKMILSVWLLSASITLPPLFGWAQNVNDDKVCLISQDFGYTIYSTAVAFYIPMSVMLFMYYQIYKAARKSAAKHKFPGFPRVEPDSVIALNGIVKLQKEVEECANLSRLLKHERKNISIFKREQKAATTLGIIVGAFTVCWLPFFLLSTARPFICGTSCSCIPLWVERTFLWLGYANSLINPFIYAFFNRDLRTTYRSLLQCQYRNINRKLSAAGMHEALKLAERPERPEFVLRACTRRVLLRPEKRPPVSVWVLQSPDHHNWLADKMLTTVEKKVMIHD

SMILES | melting point [°C] | pIC50 [1] | pIC50 [2] | pIC50 [3] | pIC50 [4] | pIC50 [5] | pIC50 [6] | pIC50 [7] | pIC50 [8]
Cc1cc(C)cc(CCCn2c(=O)c3c(N4CCN(C)CC4)cc(Cl)cc3n(Cc3ccccc3)c2=O)c1 [Example 44, 1-benzyl-7-chloro-3-[3-(3,5-dimethyl-phenyl)-propyl]-5-(4-methyl-piperazin-1-yl)-1H-quinazoline-2,4-dione] | 67 to 73 | < 5.00 | 6.71 | 5.56 | 5.58 | 8.70 | 7.14 | < 5.00 | 6.01
Cc1ccccc1Cn1c(=O)c2c(N3CCN(C)CC3)cc(Cl)cc2n(Cc2ccccc2)c1=O [Example 22, 1-benzyl-7-chloro-3-(2-methyl-benzyl)-5-(4-methyl-piperazin-1-yl)-1H-quinazoline-2,4-dione] | 92 to 95 | 5.40 | 6.18 | 5.24 | 6.67 | 8.68 | 5.81 | < 5.00 | < 5.00
Cc1ccc(Cn2c(=O)c3c(N4CCN(C)CC4)cc(Cl)cc3n(Cc3ccccc3)c2=O)cc1 [Example 24, 1-benzyl-7-chloro-3-(4-methyl-benzyl)-5-(4-methyl-piperazin-1-yl)-1H-quinazoline-2,4-dione] | 92 to 97 | < 5.00 | 6.13 | 5.49 | 6.22 | 8.70 | 6.36 | < 5.00 | < 5.00
Cc1ccc(Cn2c(=O)c3c(N4CCN(C)CC4)cc(Cl)cc3n(Cc3ccccc3)c2=O)o1 [Example 47, 1-benzyl-7-chloro-3-(5-methyl-furan-2-ylmethyl)-5-(4-methyl-piperazin-1-yl)-1H-quinazoline-2,4-dione] | 132 to 136 | 5.06 | 6.08 | 5.94 | 6.33 | 8.85 | 5.55 | < 5.00 | < 5.00
CCCn1c(=O)c2c(N3CCN(C)CC3)cc(Cl)cc2n(Cc2ccccc2)c1=O [Example 3, 1-benzyl-7-chloro-5-(4-methyl-piperazin-1-yl)-3-propyl-1H-quinazoline-2,4-dione] | 120 to 121 | < 5.00 | 6.14 | < 5.00 | 5.42 | 8.70 | 5.68 | < 5.00 | < 5.00
CN1CCN(c2cc(Cl)cc3c2c(=O)n(Cc2cccc(Cl)c2)c(=O)n3Cc2ccccc2)CC1 [Example 18, 1-benzyl-7-chloro-3-(3-chloro-benzyl)-5-(4-methyl-piperazin-1-yl)-1H-quinazoline-2,4-dione] | 165 to 169 | 5.73 | 5.86 | 5.75 | 6.13 | 8.68 | 6.47 | < 5.00 | 5.14
CN1CCN(c2cc(Cl)cc3c2c(=O)n(Cc2cccc([N+](=O)[O-])c2)c(=O)n3Cc2ccccc2)CC1 [Example 32, 1-benzyl-7-chloro-5-(4-methyl-piperazin-1-yl)-3-(3-nitro-benzyl)-1H-quinazoline-2,4-dione] | 200 to 205 | < 5.00 | 5.75 | 5.42 | 5.81 | 9.22 | 6.56 | < 5.00 | < 5.00
COc1ccccc1Cn1c(=O)c2c(N3CCN(C)CC3)cc(Cl)cc2n(Cc2ccccc2)c1=O [Example 25, 1-benzyl-7-chloro-3-(2-methoxy-benzyl)-5-(4-methyl-piperazin-1-yl)-1H-quinazoline-2,4-dione] | 91 to 96 | < 5.00 | 6.04 | 5.15 | 6.03 | 8.72 | 5.88 | < 5.00 | < 5.00
CN1CCN(c2cc(Br)cc3c2c(=O)n(Cc2ccccc2Cl)c(=O)n3Cc2ccccc2)CC1 [Example 55, 1-benzyl-7-bromo-3-(2-chloro-benzyl)-5-(4-methyl-piperazin-1-yl)-1H-quinazoline-2,4-dione] | 104 to 108 | 5.29 | 6.89 | 5.57 | 6.60 | 8.82 | 5.84 | < 5.00 | < 5.00
CN1CCN(c2cc(Cl)cc3c2c(=O)n(Cc2ccccc2Br)c(=O)n3Cc2ccccc2)CC1 [Example 14, 1-benzyl-3-(2-bromo-benzyl)-7-chloro-5-(4-methyl-piperazin-1-yl)-1H-quinazoline-2,4-dione] | 91 to 93 | 5.23 | 6.40 | 5.97 | 6.14 | 9.05 | 6.32 | < 5.00 | 5.48
CN1CCN(c2cc(Cl)cc3c2c(=O)n(Cc2ccc(Cl)cc2)c(=O)n3Cc2ccccc2)CC1 [Example 19, 1-benzyl-7-chloro-3-(4-chloro-benzyl)-5-(4-methyl-piperazin-1-yl)-1H-quinazoline-2,4-dione] | 92 to 97 | 5.66 | 5.96 | 5.51 | 6.49 | 8.51 | 6.00 | < 5.00 | 5.11
CN1CCN(c2cc(Br)cc3c2c(=O)n(Cc2ccccc2)c(=O)n3Cc2ccccc2)CC1 [Example 54, 1,3-dibenzyl-7-bromo-5-(4-methyl-piperazin-1-yl)-1H-quinazoline-2,4-dione] | 80 to 84 | < 5.00 | 6.42 | 5.30 | 6.19 | 8.64 | 6.26 | < 5.00 | < 5.00
COc1cccc(Cn2c(=O)c3c(N4CCNCC4)cc(Cl)cc3n(Cc3ccccc3)c2=O)c1 [Example 64, 1-benzyl-7-chloro-3-(3-methyoxy-benzyl)-5-piperazin-1-yl-1H-quinazoline-2,4-dione] | 124 to 130 |  |  |  |  | 8.19 |  |  | 
CN1CCN(c2cc(Cl)cc3c2c(=O)n(Cc2cccc(Br)c2)c(=O)n3Cc2ccccc2)CC1 [Example 15, 1-benzyl-3-(3-bromo-benzyl)-7-chloro-5-(4-methyl-piperazin-1-yl)-1H-quinazoline-2,4-dione] | 154 to 157 |  |  |  |  | 8.57 |  |  | 
